Source: US11306360B2, “Assessment of cellular signaling pathway activity using linear combination(s) of target gene expressions” (KONINKLIJKE PHILIPS N.V., priority 2012, dated 2022)

How the values were obtained:
[1] = test system: AR pathway; conditions: LNCaP stimulated with DHT for 4 hours, compared with 16 hours
From the text: FIG. 13 AR training results using fuzzy transformed expression data of GSE7868, “all probesets” as mentioned in Table 4 and “black and white” weights. The 1st and 2nd group of samples (from the left) has been used as negative and positive training samples, respectively.
The expression data of these stimulation experiments are publically available in the GSE7868 dataset that has been fuzzy transformed as described herein. […] The 1st and 2nd group of samples from the left has been used as negative and positive training samples, respectively.

[2] = test system: ER pathway; experiment: ER activity score validation in MCF7 breast cancer cell line (GSE9253); format: cell-based; conditions: MCF7 sample stimulated with E2, 3 hours
From the text: FIG. 17 ER validation results of a stimulation experiment with MCF7 cells (GSE9253, continuous data). The (pseudo-)linear model was trained using continuous expression data of GSE8597, the “most discriminative probesets” (underlined probesets in Table 2) and “log odds” weights (see training results in FIG. 10). It is clear from the MCF7 cells stimulated with E2, ER stimulating agent, that the defined threshold was set too high. The reason for this discrepancy could be a different stimulation regime (i.e. higher E2 concentration, but shorter stimulation time, etc.). Nevertheless, the difference of the calculated ER activity scores of the stimulated and non-stimulated cells is evident.
In FIG. 17 the validation results of the trained ER (pseudo-)linear model is shown for two microarrays measured using a MCF7 breast cancer cell line sample, one stimulated with estradiol (E2) the other one with a negative control (EtOH), originating from the GSE9253 data set. The difference in ER activity score is evident from FIG. 17. […] This is the result of the threshold defining either an active or passive state was set too high for this particular experiment. […]

[3] = test system: ER pathway; experiment: Predicted ER pathway activity in wild type MCF7 cell line (GSE21618); format: cell-based
Method: (§1) The ER (pseudo-)linear model was trained using continuous expression data of GSE8597, the “most discriminative probesets” (underlined probesets in Table 2) and “log odds” weights (see training results in FIG. 10). Different stimulation regimes were applied, denoted in the different groups of samples, and the expression of mRNA was measured by microarray at 0, 1, 2, 3, 6, 12, 24, 48 hours, denoted by the consecutive samples in the groups.
(§2) The (pseudo-)linear model of the ER pathway, constructed using a node for the transcription factor presence and a layer of probesets (Table 2) associated with the target genes of the ER pathway, analogous to FIG. 2 as described herein, and trained as described herein, was used to calculate the ER pathway activity score.
(§3) With respect to FIG. 20, Tamoxifen is a drug currently used for the treatment of ER+ (estrogen receptor positive) breast cancer. It acts as a partial antagonist of the estrogen receptor inhibiting the uncontrolled cell proliferation which is thought to be induced by ER signaling. […] Many studies have been conducted to investigate this so-called Tamoxifen resistance. The publicly available GSE21618 data set is the result of one of such study and contains microarray data of Tamoxifen resistant and wildtype MCF7 cell lines under different treatment regimes. […]

[4] = test system: ER pathway; experiment: ER pathway activity score in MCF7 cells stimulated with or deprived of E2 (GSE11352); format: cell-based; conditions: MCF7, longer exposure times (12, 24, 48 hours) to ER stimulating agent
From the text: FIG. 12 ER pathway prediction in stimulation response data of MCF7 cells treated with ER stimulating agent (E2) or control for several treatment intervals (GSE11352, continuous data). The model is trained using continuous expression data of GSE8597, the “most discriminative probesets” (underlined probesets in Table 2) and “log odds” weights (see training results in FIG. 10).
In another example, a publically available data set of MCF7 cell lines stimulated with or deprived of ER stimulating agent (E2) with expression levels measured at 12 hours, 24 hours and 48 hours after starting stimulation or deprivation (GSE11352) was used to calculate the ER activity scores using the trained ER (pseudo-)linear model as described herein. […] With the exception of the starvation of 48 hours, the predicted ER activity scores nicely correlates with the knowledge that prolonged stimulation result in higher ER activity and vice versa. Inversely, this example implies that the ER activity score can be used to monitor efficacy or inefficacy of stimulation or inhibition of ER activity treatments.

[5] = test system: ER pathway; experiment: Predicted ER pathway activity in Tamoxifen resistant MCF7 cell line (GSE21618); format: cell-based; conditions: Tamoxifen resistant cell line stimulated with E2 and treated with Tamoxifen (TamR.E2_Tam); 1, 2, 3, 6, 12, 24 and 48 h
Method: as §1, §2, §3

C[C@]12CCC(=O)C[C@@H]1CC[C@@H]1[C@@H]2CC[C@]2(C)[C@@H](O)CC[C@@H]12 [DHT, Dihydrotestosterone]
AR activity [1]: demonstrates AR activity, albeit lower activity levels than the cells stimulated for 16 hours

C[C@]12CC[C@@H]3c4ccc(O)cc4CC[C@H]3[C@@H]1CC[C@@H]2O [E2, 17beta-estradiol]
ER activity score [2]: slightly negative ER activity score
ER activity predictions ([3]; wild type MCF7 treated with 17beta-estradiol (wt1.E2)): increasing ER positive activity predictions
ER pathway activity score [4]: increase for longer exposure times

CC/C(=C(\c1ccccc1)c1ccc(OCCN(C)C)cc1)c1ccccc1 [Tamoxifen]
predicted ER pathway activity [5]: ineffective
ER pathway activity score in time ([3]; wild type MCF7 stimulated with E2 and treated with Tamoxifen (wt2.E2_Tam)): decreasing ER pathway activity score in time
